From patent US20250367109A1, “DEVICES, SYSTEMS, AND METHODS FOR IMPROVED BONE REMODELING” (UNIVERSITY OF UTAH RESEARCH FOUNDATION, priority 2024, published 2025)

Test: local elution of estradiol from implant in left proximal humerus; estradiol concentration in tendon tissue samples by mass spectroscopy
Type: in vivo, wild-type rats
Conditions: one week after implantation into left proximal humerus; compared with right rotator cuff, left and right Achilles tendon; 200 micrograms estradiol load
Excerpt: Drug-eluting implants analogous to drug-eluting implant 200 were comprised of polycaprolactone and estradiol. The drug-eluting implants were in the form of a cylinder 1 mm in diameter and 5 mm long, and loaded with 200 micrograms of estradiol. The drug-eluting implants were implanted into the left proximal humeri of wild-type rats. One week following implantation, the animals were euthanized and tendon tissue samples were collected at the following sites: left rotator cuff (target site), right rotator cuff, left Achilles tendon, and right Achilles tendon. Mass spectroscopy was used to determine the estradiol concentration in the tissue samples, and the results are provided in an estradiol concentration chart 300.

Structure (SMILES): C[C@]12CC[C@@H]3c4ccc(O)cc4CC[C@H]3[C@@H]1CC[C@@H]2O [estradiol]
- estradiol concentration in left rotator cuff tissue (target site) relative to remote tendon sites: significantly higher local estradiol concentrations at the target region relative to other regions
